Patent publication US8580811B2 (Ligand Pharmaceuticals Incorporated, priority 2005, dated 2013)

molecular target: T1, human AR (Homo sapiens, UniProt P10275); test: IR Binding Assay: whole cell competitive binding of test compounds against 3H-DHT in COS-1 cells transfected with pRShAR; settings: not given
T1 construct: expressed in transfected cells; host or cells: COS-1 cells
T1 sequence (P10275 1-920): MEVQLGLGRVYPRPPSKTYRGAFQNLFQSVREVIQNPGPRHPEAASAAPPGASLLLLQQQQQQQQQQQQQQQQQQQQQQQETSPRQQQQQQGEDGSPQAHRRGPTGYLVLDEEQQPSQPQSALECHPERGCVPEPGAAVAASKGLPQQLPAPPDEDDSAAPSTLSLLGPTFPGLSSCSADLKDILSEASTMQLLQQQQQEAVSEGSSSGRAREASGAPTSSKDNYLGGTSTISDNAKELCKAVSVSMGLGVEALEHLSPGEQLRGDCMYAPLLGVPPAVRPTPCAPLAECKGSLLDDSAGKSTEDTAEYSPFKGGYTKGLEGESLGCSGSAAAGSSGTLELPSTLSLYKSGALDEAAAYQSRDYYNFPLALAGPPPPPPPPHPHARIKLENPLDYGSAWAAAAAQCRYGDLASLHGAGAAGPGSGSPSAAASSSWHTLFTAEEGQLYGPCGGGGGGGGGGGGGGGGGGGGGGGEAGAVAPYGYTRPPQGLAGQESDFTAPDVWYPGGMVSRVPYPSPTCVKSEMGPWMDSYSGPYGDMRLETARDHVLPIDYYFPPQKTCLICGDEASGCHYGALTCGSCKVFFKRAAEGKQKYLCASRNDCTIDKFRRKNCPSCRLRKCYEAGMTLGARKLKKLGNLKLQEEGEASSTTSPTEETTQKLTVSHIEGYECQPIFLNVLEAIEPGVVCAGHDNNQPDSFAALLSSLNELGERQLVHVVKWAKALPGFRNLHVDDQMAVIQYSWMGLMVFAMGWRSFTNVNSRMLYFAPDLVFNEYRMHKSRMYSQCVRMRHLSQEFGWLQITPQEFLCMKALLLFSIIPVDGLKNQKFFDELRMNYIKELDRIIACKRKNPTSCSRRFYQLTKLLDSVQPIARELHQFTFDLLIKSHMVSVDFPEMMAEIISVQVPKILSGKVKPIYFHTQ
Procedure: For the whole cell binding assay, COS-1 cells in 96-well microtiter plates including DMEM-10% FBS were transfected as described above with the following plasmid DNA: pRShAR (2 ng/well), pRS-β-Gal (50 ng/well) and pGEM (48 ng/well). Six hours after transfection, media was removed, the cells were washed with PBS and fresh media was added. The next day, the media was changed to DMEM-serum free to remove any endogenous ligand that might be complexed with the receptor in the cells.
After 24 hours in serum-free media, either a saturation analysis to determine the Kd for tritiated dihydrotestosterone (^3H-DHT) on human AR or a competitive binding assay to evaluate the ability of test compounds to compete with ^3H-DHT for AR was performed. […] For the competitive binding assay, media including 1 nM ^3H-DHT and test compounds in concentrations ranging from 10^−10 to 10^−6 M were added to the cells. Three replicates were used for each sample. After three hours at 37° C., an aliquot of the total binding media at each concentration of ^3H-DHT was removed to estimate the amount of free ^3H-DHT. The remaining media was removed, the cells were washed three times with PBS to remove unbound ligand, and cells were lysed with a Triton X-100-based buffer. The lysates were assayed for amount of bound ^3H-DHT and β-Gal activity using a scintillation counter or spectrophotometer, respectively.
For the saturation analyses, the difference between the total binding and the nonspecific binding, normalized by the β-Gal rate, was defined as specific binding. The specific binding was evaluated by Scatchard analysis to determine the Kd for ^3H-DHT. See e.g., D. Rodbard, “Mathematics and statistics of ligand assays: an illustrated guide” In: J. Langon and J. J. Clapp, eds., Ligand Assay, Masson Publishing U.S.A., Inc., New York, pp. 45-99, (1981), the disclosure of which is herein incorporated by reference. For the competition studies, the data was plotted as the amount of ^3H-DHT (% of control in the absence of test compound) remaining over the range of the dose-response curve for a given compound. […] The Ki values were determined by application of the Cheng-Prusoff equation to the IC50 values, where:
[formula] After correcting for non-specific binding, IC50 values were determined. […] The IC50 value was determined graphically from a log-logit plot of the data. The Ki values were determined by application of the Cheng-Prusoff equation to the IC50 values, the labeled ligand concentration and the Kd of the labeled ligand. see e.g., Cheng, Y. C. and Prusoff, W. H. Biochem. Pharmacol. 22:3099 (1973).

Row | SMILES | Ki
1 | CC1c2c(ccc3[nH]c(=O)cc(Cl)c23)N(C)C1C (racemic) [Compound 136, (±)-9-Chloro-1,2,3-trimethyl-1,2,3,6-tetrahydro-pyrrolo[3,2-f]quinolin-7-one] | > 10 nM
2 | CCCc1c(C)n(CC(F)(F)F)c2ccc3[nH]c(=O)cc(Cl)c3c12 [Compound 210, 9-Chloro-2-methyl-1-propyl-3-(2,2,2-trifluoroethyl)-3,6-dihydro-pyrrolo[3,2-f]quinolin-7-one] | < 5 nM
3 | Cc1c(-c2ccccc2F)n(CC(F)(F)F)c2ccc3[nH]c(=O)cc(Cl)c3c12 [Compound 199, 9-Chloro-2-(2-fluorophenyl)-1-methyl-3-(2,2,2-trifluoroethyl)-3,6-dihydro-pyrrolo[3,2-f]quinolin-7-one] | < 5 nM
4 | Cc1c(C)n(CC(F)(F)C(F)(F)C(F)(F)F)c2ccc3[nH]c(=O)cc(Cl)c3c12 [Compound 214, 9-Chloro-1,2-dimethyl-3-(2,2,3,3,4,4,4-heptafluorobutyl)-3,6-dihydro-pyrrolo[3,2-f]-quinolin-7-one] | > 10 nM
5 | CCN1CC(C)c2c1ccc1[nH]c(=O)cc(Cl)c21 (racemic) [Compound 134, (±)-9-Chloro-3-ethyl-1-methyl-1,2,3,6-tetrahydro-pyrrolo[3,2-f]quinolin-7-one] | < 5 nM
6 | Cc1ccc(-c2c(C)c3c4c(Cl)cc(=O)[nH]c4ccc3n2CC(F)(F)F)cc1 [Compound 204, 9-Chloro-1-methyl-2-(4-methylphenyl)-3-(2,2,2-trifluoroethyl)-3,6-dihydro-pyrrolo[3,2-f]-quinolin-7-one] | < 5 nM
7 | Cc1c(-c2cccs2)n(CC(F)(F)F)c2ccc3[nH]c(=O)cc(Cl)c3c12 [Compound 207, 9-Chloro-1-methyl-2-thien-2-yl-3-(2,2,2-trifluoroethyl)-3,6-dihydro-pyrrolo[3,2-f]quinolin-7-one] | < 5 nM
8 | Cc1c(C)n(CCCO)c2ccc3[nH]c(=O)cc(C(F)(F)F)c3c12 [Compound 249, 1,2-Dimethyl-3-(3-hydroxypropyl)-9-trifluoromethyl-3,6-dihydro-pyrrolo[3,2-f]quinolin-7-one] | < 5 nM
9 | CCc1c(C)c2c3c(C(F)(F)F)cc(=O)[nH]c3ccc2n1CC(F)(F)C(F)(F)F [Compound 225, 2-Ethyl-1-methyl-3-(2,2,3,3,3-pentafluoropropyl)-9-trifluoromethyl-3,6-dihydro-pyrrolo[3,2-f]-quinolin-7-one] | < 5 nM
10 | CCc1c(C)c2c3c(Cl)cc(=O)[nH]c3ccc2n1CC(O)CO (stereo not shown) [Compound 297, 9-Chloro-3-(2,3-dihydroxypropyl)-2-ethyl-1-methyl-3,6-dihydro-pyrrolo[3,2-f]-quinolin-7-one] | > 10 nM
11 | Cc1c(-c2cccs2)n(CC(F)(F)C(F)(F)F)c2ccc3[nH]c(=O)cc(Cl)c3c12 [Compound 259, 9-Chloro-1-methyl-3-(2,2,3,3,3-pentafluoropropyl)-2-thiophen-2-yl-3,6-dihydro-pyrrolo[3,2-f]quinolin-7-one] | > 10 nM
12 | Cc1c(C(F)(F)C(F)(F)F)n(CC(F)(F)F)c2ccc3[nH]c(=O)cc(Cl)c3c12 [Compound 255, 9-Chloro-1-methyl-2-(pentafluoroethyl)-3-(2,2,2-trifluoroethyl)-3,6-dihydro-pyrrolo[3,2-f]-quinolin-7-one] | < 5 nM
13 | CC1CN(CC(F)(F)F)c2ccc3[nH]c(=O)cc(Cl)c3c21 (racemic) [Compound 132, (±)-9-Chloro-1-methyl-3-(2,2,2-trifluoro-ethyl)-1,2,3,6-tetrahydro-pyrrolo[3,2-f]quinolin-7-one] | < 5 nM
14 | CC1c2c(ccc3[nH]c(=O)cc(Cl)c23)N(CC(C)(C)C)C1C (racemic) [Compound 141, (±)-9-Chloro-1,2-dimethyl-3-(2,2-dimethylpropyl)-1,2,3,6-tetrahydro-pyrrolo[3,2-f]quinolin-7-one] | 5 to 10 nM
15 | Cc1c(C)n(CC(O)C(F)(F)F)c2ccc3[nH]c(=O)cc(C(F)(F)F)c3c12 (racemic) [Compound 243, (±)-1,2-Dimethyl-3-(3,3,3-trifluoro-2-hydroxy-propyl)-9-trifluoromethyl-3,6-dihydro-pyrrolo[3,2-f]-quinolin-7-one] | < 5 nM
16 | CC1c2c(ccc3[nH]c(=O)cc(Cl)c23)N(CC(F)(F)F)C1C (racemic) [Compound 127, (±)-9-Chloro-1,2-dimethyl-3-(2,2,2-trifluoro-ethyl)-1,2,3,6-tetrahydro-pyrrolo[3,2-f]quinolin-7-one] | 5 to 10 nM
17 | Cc1c(-c2ccncc2)n(CC(F)(F)C(F)(F)F)c2ccc3[nH]c(=O)cc(Cl)c3c12 [Compound 263, 9-Chloro-1-methyl-3-(2,2,3,3,3-pentafluoropropyl)-2-(4-pyridyl)-3,6-dihydro-pyrrolo[3,2-f]quinolin-7-one] | < 5 nM
18 | Cc1c(C)n(CCCC(F)(F)F)c2ccc3[nH]c(=O)cc(C(F)(F)F)c3c12 [Compound 227, 1,2-Dimethyl-3-(4,4,4-trifluorobutyl)-9-trifluoromethyl-3,6-dihydro-pyrrolo[3,2-f]-quinolin-7-one] | < 5 nM
19 | Cc1c(C(F)(F)F)n(CC(O)C(F)(F)F)c2ccc3[nH]c(=O)cc(Cl)c3c12 (racemic) [Compound 233, (±)-9-Chloro-1-methyl-3-(3,3,3-trifluoro-2-hydroxypropyl)-2-trifluoromethyl-3,6-dihydropyrrolo[3,2-f]quinolin-7-one] | < 5 nM
20 | Cc1c(-c2cccnc2)n(C[C@H](O)C(F)(F)F)c2ccc3[nH]c(=O)cc(Cl)c3c12 [Compound 274, (S)-9-Chloro-1-methyl-2-(3-pyridyl)-3-(3,3,3-trifluoro-2-hydroxy-propyl)-3,6-dihydro-pyrrolo[3,2-f]quinolin-7-one] | > 10 nM
21 | CC1c2c(ccc3[nH]c(=O)cc(Cl)c23)N(CC(F)(F)F)C1c1ccc(F)cc1 (racemic) [Compound 149, (±)-9-Chloro-2-(4-fluoro-phenyl)-1-methyl-3-(2,2,2-trifluoroethyl)-1,2,3,6-tetrahydro-pyrrolo[3,2-f]quinolin-7-one] | 5 to 10 nM
22 | Cc1c(-c2nccs2)n(CC(F)(F)C(F)(F)F)c2ccc3[nH]c(=O)cc(Cl)c3c12 [Compound 262, 9-Chloro-1-methyl-3-(2,2,3,3,3-pentafluoropropyl)-2-(1,3-thiazol-2-yl)-3,6-dihydro-pyrrolo[3,2-f]quinolin-7-one] | 5 to 10 nM
23 | CCc1c(-c2cccs2)[nH]c2ccc3[nH]c(=O)cc(Cl)c3c12 [Compound 123, 9-Chloro-1-ethyl-2-thien-2-yl-3,6-dihydro-pyrrolo[3,2-f]quinolin-7-one] | 5 to 10 nM
24 | Cc1c(C)n(CCC(F)(F)F)c2ccc3[nH]c(=O)cc(C(F)(F)F)c3c12 [Compound 221, 1,2-Dimethyl-9-trifluoromethyl-3-(3,3,3-trifluoropropyl)-3,6-dihydro-pyrrolo[3,2-f]-quinolin-7-one] | < 5 nM

same assay, conditions: competition with 1 nM 3H-DHT, transfected COS-1 cells, 3 h at 37° C., Cheng-Prusoff from IC50; read-out: Ki

Row | SMILES | Ki
25 | CCc1c(-c2ccccc2)[nH]c2ccc3[nH]c(=O)cc(Cl)c3c12 [Compound 125, 9-Chloro-1-ethyl-2-phenyl-3,6-dihydro-pyrrolo[3,2-f]quinolin-7-one] | > 10 nM
